Earlier results as cited in patent publication US8202842B2, “Inhibition of cholera toxins by galatooligosaccharides (GOS)” (priority 2006, dated 2012).

Columns and labels:
cholera toxin = cholera toxin (Vibrio cholerae serotype O1, UniProt P01556); conditions: rabbit, in vivo
[1] = tested on: uropathogenic Escherichia coli; conditions: soluble, monovalent

Sequence of cholera toxin (P01556 whole entry, looked up): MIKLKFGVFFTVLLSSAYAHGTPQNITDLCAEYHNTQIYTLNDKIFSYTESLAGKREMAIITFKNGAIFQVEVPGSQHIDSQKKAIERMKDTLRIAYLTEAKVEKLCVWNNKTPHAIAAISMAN

Compound: 3-sialyllactose
- Inhibition of fluid accumulation induced by cholera toxin (cholera toxin): inhibitor of fluid accumulation

Compound: OC[C@H]1O[C@H](O[C@@H]2[C@H](O)[C@@H](O)[C@H](O[C@H]3[C@H](O)[C@@H](O)C(O)O[C@@H]3CO)O[C@@H]2CO)[C@H](O)[C@@H](O)[C@H]1O (some centres unmarked) [globotriose]
- Interference with attachment and colonization of uropathogenic Escherichia coli [1]: interfere with attachment and colonization
